Tests used:
[1] = test system: M. tuberculosis mrx2 KO mutant (Δmrx2); format: cell-based; settings: times higher
Mrx2 mutants = Mrx2 mutants (Mycobacterium tuberculosis, UniProt O53193, G95S); format: biochemical, M. tuberculosis

SMILES | MIC of Δmrx2 relative to M. tuberculosis H37Rv [1] | Activity of Mrx2G95S against the compound (Mrx2 mutants)
O=[N+]([O-])c1cc2cc3ccc4oc([N+](=O)[O-])cc4c3cc2o1 [nNF-C2, 2,8-Dinitronaphtho[2,1-b:7,6-b']difuran] | 8 times | maintained its ability to metabolize
COC(=O)c1ccc2c(ccc3oc([N+](=O)[O-])cc32)c1 [nNF-C4, Methyl 2-nitronaphtho[2,1-b]furan-7-carboxylate] | 16 times | 
